Measured values taken from patent US8575158B2, “1-phenyl-substituted heterocyclyl derivatives and their use as prostaglandin D2 receptor modulators” (Actelion Pharmaceuticals Ltd., priority 2010, dated 2013).

Target: T1, hCRTH2 receptor (Homo sapiens, UniProt Q9Y5Y4)
T1 construct: expressed in transfected cells; host or cells: HEK293
T1 sequence (Q9Y5Y4 1-395): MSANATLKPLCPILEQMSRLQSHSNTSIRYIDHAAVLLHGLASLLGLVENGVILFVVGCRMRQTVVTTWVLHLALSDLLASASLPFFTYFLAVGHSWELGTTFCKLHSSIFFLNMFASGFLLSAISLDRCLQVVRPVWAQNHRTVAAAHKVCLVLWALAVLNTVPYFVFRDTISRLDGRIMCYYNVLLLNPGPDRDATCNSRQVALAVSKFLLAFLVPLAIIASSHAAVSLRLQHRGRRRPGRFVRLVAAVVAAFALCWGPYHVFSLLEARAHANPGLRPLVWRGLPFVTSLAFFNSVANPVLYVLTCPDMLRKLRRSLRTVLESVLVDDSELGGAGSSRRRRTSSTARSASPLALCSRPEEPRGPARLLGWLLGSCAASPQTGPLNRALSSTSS
Assay: Radioligand displacement assay (3H-PGD2) on hCRTH2 receptor membranes
Format: binding
Settings: antagonistic activity

[1] = 3H-PGD2 displacement on HEK293-hCRTH2 membrane fragments
[2] = 3H-PGD2 radioligand displacement, HEK293-hCRTH2 membranes

Structure (SMILES)	IC50 [1]	IC50 [2]
C[C@@H](Oc1ccc(Cl)cc1C1c2ccccc2CCN1C(=O)OCc1ccccc1)C(=O)O (stereo partly drawn) [Example 220, 1-[2-((R)-1-Carboxy-ethoxy)-5-chloro-phenyl]-3,4-dihydro-1H-isoquinoline-2-carboxylic acid benzyl ester]	0.021 µM	–
O=C(O)COc1ccc(Cl)cc1C1c2ccccc2CCN1C(=O)[C@@H]1C[C@H]1c1cccc(Cl)c1 (single isomer, unassigned; diastereoisomer 1) [Example 151, (±)-(4-Chloro-2-{2-[(trans)-2-(3-chloro-phenyl)-cyclopropanecarbonyl]-1,2,3,4-tetrahydro-isoquinolin-1-yl}-phenoxy)-acetic acid (diastereoisomer 1)]	0.264 µM	–
COc1ccc(COC(=O)N2CCc3ccccc3C2c2cc(Cl)ccc2OCC(=O)O)c(OC)c1 (racemic) [Example 254]	0.016 µM	–
CC(C)COCCC(=O)N1CCc2ccccc2C1c1cc(Cl)ccc1OCC(=O)O (racemic) [Example 450]	–	0.403 µM
Cc1nc2ccccc2n1CCOC(=O)N1CCc2cc(F)ccc2[C@H]1c1cc(Cl)ccc1OCC(=O)O [Example 343]	–	0.266 µM
O=C(O)COc1ccc(Cl)cc1C1c2ccccc2CN1C(=O)OCc1ccccc1 (racemic) [Example 230]	0.0128 µM	–
O=C(O)COc1cc(F)ccc1C1c2ccccc2CCN1C(=O)OCc1ccccc1 (racemic) [Example 215, (±)-1-(2-Carboxymethoxy-4-fluoro-phenyl)-3,4-dihydro-1H-isoquinoline-2-carboxylic acid benzyl ester]	0.027 µM	–
Cc1cccc([C@@H]2C[C@H]2C(=O)N2CCc3ccccc3C2c2cc(Cl)ccc2OCC(=O)O)c1 (mixture of isomers) [Example 427]	–	0.0466 µM
Cc1cn(CCC(=O)N2CCc3ccccc3C2c2cc(Cl)ccc2OCC(=O)O)c2ccc(F)cc12 (racemic) [Example 368]	–	0.0207 µM
O=C(O)COc1ccc(Cl)cc1C1c2ccccc2CCN1C(=O)COc1cccnc1OCCO (racemic) [Example 475]	–	0.337 µM
O=C(O)COc1c(F)cc(F)cc1C1c2ccccc2CCN1C(=O)OCc1ccccc1 (racemic) [Example 33, (±)-1-(2-Carboxymethoxy-3,5-difluoro-phenyl)-3,4-dihydro-1H-isoquinoline-2-carboxylic acid benzyl ester]	0.196 µM	–
O=C(O)COc1ccc(Cl)cc1C1c2ccccc2CCN1C(=O)CNc1ccccc1 (racemic) [Example 443]	–	0.855 µM
O=C(O)COc1ccc(F)cc1C1c2ccccc2CCN1C(=O)OCCc1ccccc1Cl (racemic) [Example 177, (±)-1-(2-Carboxymethoxy-5-fluoro-phenyl)-3,4-dihydro-1H-isoquinoline-2-carboxylic acid 2-(2-chloro-phenyl)-ethyl ester]	0.0275 µM	–
O=C(O)COc1ccc(F)cc1C1c2ccccc2CCN1C(=O)Cc1ccc2ccccc2c1 (racemic) [Example 135, (±)-{4-Fluoro-2-[2-(2-naphthalen-2-yl-acetyl)-1,2,3,4-tetrahydro-isoquinolin-1-yl]-phenoxy}-acetic acid]	0.0422 µM	–
O=C(O)COc1ccc(Cl)cc1C1c2ccccc2CN1C(=O)NCc1cccc(F)c1 (racemic) [Example 553]	–	0.0174 µM
O=C(O)COc1ccc(Cl)cc1C1c2ccccc2CCN1C(=O)[C@@H]1C[C@H]1c1ccc(Cl)cc1 (mixture of isomers) [Example 157]	0.0453 µM	–
O=C(O)COc1ccc(Cl)cc1C1c2ccccc2CCN1C(=O)CCn1ncc2ccccc21 (racemic) [Example 448]	–	0.0354 µM

Structure (SMILES)	IC50 [1]	IC50 [2]
Cn1cnc2cc(OCC(=O)N3CCc4ccccc4C3c3cc(Cl)ccc3OCC(=O)O)cnc21 (racemic) [Example 483]	–	0.47 µM
O=C(O)COc1ccc(Cl)cc1[C@@H]1c2ccccc2CCN1C(=O)OCc1nc2ccccc2s1 [Example 294, (S)-1-(2-Carboxymethoxy-5-chloro-phenyl)-3,4-dihydro-1H-isoquinoline-2-carboxylic acid benzothiazol-2-ylmethyl ester]	–	0.00194 µM
Cc1nn(CCC(=O)N2CCc3cc(F)ccc3[C@H]2c2cc(Cl)ccc2OCC(=O)O)c2cc(F)ccc12 [Example 393]	–	0.154 µM
Cc1ccc(OCC(=O)O)c(C2c3ccccc3CCN2C(=O)OCc2ccccc2)c1 (racemic) [Example 3, (±)-1-(2-Carboxymethoxy-5-methyl-phenyl)-3,4-dihydro-1H-isoquinoline-2-carboxylic acid benzyl ester]	0.0627 µM	–
Cc1cc(C)n(CCOC(=O)N2CCc3ccccc3[C@H]2c2cc(Cl)ccc2OCC(=O)O)n1 [Example 291, (S)-1-(2-Carboxymethoxy-5-chloro-phenyl)-3,4-dihydro-1H-isoquinoline-2-carboxylic acid 2-(3,5-dimethyl-pyrazol-1-yl)-ethyl ester]	–	0.00892 µM
CCO[C@@H]1C[C@H]1C(=O)N1CCc2ccccc2[C@H]1c1cc(Cl)ccc1OCC(=O)O [Example 461]	–	0.185 µM
Cc1nn(CCC(=O)N2Cc3ccccc3C2c2cc(Cl)ccc2OCC(=O)O)c2cc(F)ccc12 (single isomer, unassigned) [Example 541, (4-Chloro-2-{2-[3-(6-fluoro-3-methyl-indazol-1-yl)-propionyl]-2,3-dihydro-1H-isoindol-1-yl}-phenoxy)-acetic acid]	–	0.865 µM
O=C(O)COc1ccc(Cl)cc1[C@@H]1c2ccccc2CCN1C(=O)OCCc1cccc(F)c1 [Example 286, (S)-1-(2-Carboxymethoxy-5-chloro-phenyl)-3,4-dihydro-1H-isoquinoline-2-carboxylic acid 2-(3-fluoro-phenyl)-ethyl ester]	–	0.00267 µM
COc1cc2c(ccn2CCC(=O)N2CCc3ccccc3C2c2cc(Cl)ccc2OCC(=O)O)cn1 (racemic) [Example 373]	–	0.433 µM
O=C(O)COc1ccc(Cl)cc1C1c2ccccc2CCN1C(=O)CCn1ccc2cccc(Cl)c21 (racemic) [Example 380]	–	0.0243 µM
O=C(O)COc1ccc(Cl)cc1C1c2ccccc2CN1C(=O)CCN1CCCc2ccccc21 (racemic) [Example 515]	–	0.0601 µM
O=C(O)COc1ccc(F)cc1[C@@H]1c2ccccc2CCN1C(=O)OCc1ccccc1 [Example 221, (S)-1-(2-Carboxymethoxy-5-fluoro-phenyl)-3,4-dihydro-1H-isoquinoline-2-carboxylic acid benzyl ester]	0.00291 µM	–
Cc1ncsc1CCOC(=O)N1CCc2c(ccc(F)c2F)[C@H]1c1cc(Cl)ccc1OCC(=O)O [Example 300, (S)-1-(2-Carboxymethoxy-5-chloro-phenyl)-5,6-difluoro-3,4-dihydro-1H-isoquinoline-2-carboxylic acid 2-(4-methyl-thiazol-5-yl)-ethyl ester]	–	0.00639 µM
CCCCNC(=O)N1CCc2ccccc2C1c1cc(Cl)ccc1OCC(=O)O (racemic) [Example 496]	–	0.0627 µM
O=C(O)COc1ccc(Cl)cc1[C@@H]1c2ccc(F)cc2CCN1C(=O)OCc1cccc(F)c1 [Example 353, (S)-1-(2-Carboxymethoxy-5-chloro-phenyl)-6-fluoro-3,4-dihydro-1H-isoquinoline-2-carboxylic acid 3-fluoro-benzyl ester]	–	0.00279 µM
Cc1[nH]c2ccccc2c1CCC(=O)N1CCc2ccccc2C1c1cc(F)ccc1OCC(=O)O (racemic) [Example 65, (±)-(4-Fluoro-2-{2-[3-(2-methyl-1H-indol-3-yl)-propionyl]-1,2,3,4-tetrahydro-isoquinolin-1-yl}-phenoxy)-acetic acid]	0.191 µM	–
